Read-outs that look alike come from different tables or passages of the source.
Tests used:
[1] = test system: hepatitis B surface antigen (HBsAg); conditions: for % Cytotoxicity (d16, post 2°): HBsAg + 10 μg AGP-AF intranasally; for % Cytotoxicity (d8, post 3°): intranasal HBsAg + 10 μg AGP-AF
[2] = test system: hepatitis B surface antigen (HBsAg); test: Serum anti-HBsAg antibody titers after intranasal HBsAg + AGP-AF (ELISA); type: in vivo, BALB/c mice; conditions: for Anti HBsAg Titer^−1 IgG1 / Anti HBsAg Titer^−1 IgG2a: K = 10^3
[3] = test system: hepatitis B surface antigen (HBsAg); test: Vaginal wash anti-HBsAg antibody after intranasal HBsAg + AGP-AF; type: in vivo, BALB/c mice; conditions: 10 days after the booster immunization; intranasal HBsAg + 10 μg AGP-AF
Description: Vaginal samples were collected 10 days after the booster immunization and assayed for anti-HBsAg antibody.

[4] = test system: hepatitis B surface antigen (HBsAg); test: Anti-HBsAg antibody titer with AGP-SE (ELISA plates coated with HBsAg or p72 peptide); conditions: sera day 28 post 2°, 25 μg AGP-SE
influenza A/HK/68 [5] = type: in vivo, BALB/c mice; conditions: mouse, in vivo
influenza A/HK/68 [6] = type: in vivo, ICR mice; conditions: mouse, in vivo
[7] = Fever response in rabbits (pyrogenicity); type: in vivo; conditions: 10 ug/kg; cumulative rise ≥1.5 degree in three rabbits is considered pyrogenic
Experimental: The AGP compounds were also evaluated for their tendency to induce a fever response in rabbits. Each compound was formulated in 10% (v/v) ethanol/water solution at 100 mg/ml, then diluted with D5W to the desired concentration. The material was injected at 3 ml/kg body weight into 3 rabbits. The rise in core temperature of the rabbits was recorded.

[8] = test system: hepatitis B surface antigen (HBsAg); test: Cytotoxic T-lymphocyte response to HBsAg with AGP in stable emulsion (AGP-SE); conditions: s.c. 2.0 μg HBsAg + 25 μg AGP/SE
influenza A/HK/68 [9] = test system: influenza A/HK/68; design: species or system ICR mice; conditions: mouse, in vivo
influenza A/HK/68 [10] = test system: influenza A/HK/68; design: species or system ICR mice; conditions: mouse, in vivo; remark: listed apart in the source
E.G7 (OVA) cells = conditions: s.c. 25 μg OVA in AGP preparation, spleen cells 21 days later
TNF-α = test: Cytokine induction in human whole blood ex vivo culture: TNF-α (ELISA); type: cell-based; conditions: 4 hr, Table 15
Method in brief: (§1)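 Compounds in 10% EtOH-water added at 1:10 to human whole blood, 4 hr at 37° C with rotation; RPMI-treated controls. After PBS dilution and centrifugation, supernatant TNF-α and IL-1β measured by ELISA.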

IL-1β = test: Cytokine induction in human whole blood ex vivo culture: IL-1β (ELISA); type: cell-based; conditions: 4 hr, Table 15
Method in brief: as §1

[11] = day 22 post 2°, HBsAg + 10 μg AGP-AF intranasally
[12] = serum, day 21 post 3°, intranasal HBsAg + 10 μg AGP-AF
[13] = ELISA plates coated with p72 peptide

3-Hydroxy-(S)-2-[(R)-3-dodecanoyloxytetradecanoylamino]propyl 2-Deoxy-4-O-phosphono-2-[(R)-3-dodecanoyloxytetradecanoylamino]-3-O-[(R)-3-dodecanoyloxytetradecanoyl]-β-D-glucopyranoside Triethylammonium Salt [B3]
% Cytotoxicity (d16, post 2°) ([1]; E/T 6.25:1): 11%
% Cytotoxicity (d8, post 3°) ([1]; E/T 6.25:1): 20%
% Cytotoxicity (d16, post 2°) ([1]; E/T 12.5:1): 17%
% Cytotoxicity (d8, post 3°) ([1]; E/T 12.5:1): 32%
% Cytotoxicity (d16, post 2°) ([1]; E/T 25:1): 26%
% Cytotoxicity (d8, post 3°) ([1]; E/T 25:1): 45%
% Cytotoxicity (d16, post 2°) ([1]; E/T 50:1): 43%
% Cytotoxicity (d8, post 3°) ([1]; E/T 50:1): 54%
Anti HBsAg Titer^−1 IgA [2, 11]: 6,400
Anti HBsAg Titer^−1 IgG1 [2, 11]: 1000K
Anti HBsAg Titer^−1 IgG2a [2, 11]: 500K
Anti HBsAg Titer^−1 IgG1 [2, 12]: 1000K
Anti HBsAg Titer^−1 IgG2a [2, 12]: 1000K
Anti HBsAg Titer^−1 IgA [2, 12]: 25,600
Vaginal Wash Anti-HBsAg Titer^−1 IgA [3]: 1600
Vaginal Wash Anti-HBsAg Titer^−1 IgG [3]: 800
Anti-HBsAg Titer^−1 HBsAg IgG1 ([4]; ELISA plates coated with HBsAg): 512K
Anti-HBsAg Titer^−1 HBsAg IgG2a ([4]; ELISA plates coated with HBsAg): 1024K
Anti-HBsAg Titer^−1 p72-Peptide IgG1 [4, 13]: 16K
Anti-HBsAg Titer^−1 p72-Peptide IgG2a [4, 13]: 128K
Anti-influenza Titer^−1 IgG1 (influenza A/HK/68 [5]): 3200
Anti-influenza Titer^−1 IgG2b (influenza A/HK/68 [5]): 800
Anti-influenza Titer^−1 Total IgG (influenza A/HK/68 [5]): 3200
Percent Survival (influenza A/HK/68 [5]): 87.5%
Percent Survival (influenza A/HK/68 [6]): 0%
Titer−1 IgG2a (influenza A/HK/68 [6]): 50
Titer−1 IgG2b (influenza A/HK/68 [6]): 800
PYROGENICITY Total Rise ° C., 3 rabbits [7]: 4.2 °C
% Cytotoxicity ([8]; d16, post 2°, E:T 6.25:1): 22%
% Cytotoxicity ([8]; d16, post 2°, E:T 12.5:1): 32%
% Cytotoxicity ([8]; d16, post 2°, E:T 25:1): 47%
% Cytotoxicity ([8]; d16, post 2°, E:T 50:1): 81%
% Cytotoxicity ([8]; d17, post 1°, E:T 6.25:1): 5%
% Cytotoxicity ([8]; d17, post 1°, E:T 12.5:1): 9%
% Cytotoxicity ([8]; d17, post 1°, E:T 25:1): 15%
% Cytotoxicity ([8]; d17, post 1°, E:T 50:1): 28%
IgG Titer-1 post 1° (influenza A/HK/68 [9]): 3200
IgG Titer-1 post 2° (influenza A/HK/68 [9]): 102,400
Percent Survival post 1° (influenza A/HK/68 [9]): 70%
Percent Survival post 2° (influenza A/HK/68 [9]): 60%
Percent Survival (influenza A/HK/68 [10]): 33%
% Cytotoxicity (E.G7 (OVA) cells; E:T 12.5:1): 42%
% Cytotoxicity (E.G7 (OVA) cells; E:T 25:1): 54%
% Cytotoxicity (E.G7 (OVA) cells; E:T 50:1): 65%

4-Hydroxy-(S)-3-[(R)-3-decanoyloxytetradecanoyl]butyl 2-Deoxy-4-O-phosphono-2-[(R)-3-decanoyloxytetradecanoylamino]-3-O-[(R)-3-decanoyltetradecanoyl]-β-D-glucopyranoside Triethylammonium Salt [B9]
TNF-α (TNF-α; Dosage 1000 ng/ml): 145 pg/mL
TNF-α (TNF-α; Dosage 5000 ng/ml): 247 pg/mL
TNF-α (TNF-α; Dosage 10,000 ng/ml): 449 pg/mL
Anti-influenza Titer^−1 IgG1 (influenza A/HK/68 [5]): 1600
Anti-influenza Titer^−1 IgG2a (influenza A/HK/68 [5]): 3200
Anti-influenza Titer^−1 IgG2b (influenza A/HK/68 [5]): 800
Anti-influenza Titer^−1 Total IgG (influenza A/HK/68 [5]): 1600
Percent Survival (influenza A/HK/68 [5]): 87.5%
PYROGENICITY Total Rise ° C., 3 rabbits [7]: 3.1 °C
IgG Titer-1 post 1° (influenza A/HK/68 [9]): 6400
IgG Titer-1 post 2° (influenza A/HK/68 [9]): 12,800
Percent Survival post 1° (influenza A/HK/68 [9]): 80%
Percent Survival post 2° (influenza A/HK/68 [9]): 50%
Anti-influenza Titer^−1 Total IgG (influenza A/HK/68 [10]): 6400
Percent Survival (influenza A/HK/68 [10]): 44%
IL-1β (IL-1β; Dosage 1000 ng/ml): 53 pg/mL
IL-1β (IL-1β; Dosage 5000 ng/ml): 84 pg/mL
IL-1β (IL-1β; Dosage 10,000 ng/ml): 96 pg/mL
% Cytotoxicity (E.G7 (OVA) cells; E:T 12.5:1): 36%
% Cytotoxicity (E.G7 (OVA) cells; E:T 25:1): 55%
% Cytotoxicity (E.G7 (OVA) cells; E:T 50:1): 65%
